Test system: Lawsonia intracellularis
Assay: Embedded early vaccination field study: performance of weaned piglets during the rearing period
Assay type: in vivo
Method: The study was carried out in a unit in North Rhine Westphalia with 160 sows and 600 breeding stalls, producing to a weekly cycle with four weeks' suckling. The piglets are sold on for fattening once they reach about 30 kg.
The unit was chosen because clinical ileitis occurred in the rearing quarters of the unit if the animals were not treated with an antibiotic effective against Lawsonia intracellularis for 10 days from the weaning time onwards. More detailed diagnosis found. Lawsonia intracellularis in the faeces of the clinically sick animals and other diarrhea-causing pathogens were ruled out.
Within the course of the study all the piglets were weighed on removal from the sows and individually marked with progressive numbering using an ear tag. A blood sample was taken from each of 15 piglets in each group of weaned animals on the day of removal from the sow and this blood was tested for antibodies to Lawsonia intracellularis. The weaned piglets were put into pens in groups of 10 animals. Four days after weaning every second group of weaned animals was vaccinated with Enterisol® Ileitis (Boehringer Ingelheim) in accordance with the manufacturer's instructions through the drinking water in their trough. The other groups remained unvaccinated. After 3 days without antibiotics following the ileitis vaccination, the piglets of all the weaned groups were subjected to tylosin therapy (10 mg/kg KGW Tylae G 25, Elanco Animal Health) for 18 days starting from the 8th day after weaning. The unvaccinated weaned piglets were also treated with tylosin in the same dosage for 18 days starting from the 8th day after weaning.
On the day of release from their pens, all the piglets were again weighed individually. In addition, blood samples were taken from 10 piglets in each market batch, and the samples were examined for antibodies to Lawsonia intracellularis using ELISA. All the study groups were subjected to identical care and feed conditions. The study encompasses a total of 891 piglets. The absolute weight gain and daily increase in growth were calculated from the weights on removal from the sows and release from the pens. The rearing period was ascertained using the weaning date and date of sale.

CC[C@H]1OC(=O)C[C@@H](O)[C@H](C)[C@@H](O[C@@H]2O[C@H](C)[C@@H](O[C@H]3C[C@@](C)(O)[C@@H](O)[C@H](C)O3)[C@H](N(C)C)[C@H]2O)[C@@H](CC=O)C[C@@H](C)C(=O)/C=C/C(C)=C/[C@@H]1CO[C@@H]1O[C@H](C)[C@@H](O)[C@@H](OC)[C@H]1OC [tylosin]
rearing period (average, weaning date to date of sale): 52.9 days | breeding pens blocked longer than pens containing vaccinated groups (difference in maximum rearing period): 17 days | average gain per day (during rearing period): 404 g per day | Max. growth period (maximum rearing period): 96 days | daily increase (mean daily weight gain during rearing period): 404 g | sale weight (mean weight at end of rearing period): 29.26 kg | Min. growth period (shortest time after which a piglet was sent on for fattening): 31 days

Source: US8398970B2, “Method of preventing early Lawsonia intracellularis infections” (priority 2007, dated 2013)
